Laboratory results published in the supplement of paper PMC10307832.

What was measured:
Assay in all cases: relative viability (nuclei count vs DMSO), 5 days (fraction); higher = more cells survive
[1] = compound: CC[C@@H](C)CNCC(=O)N1CCC2=C([C@@H]1COC3=CC=CC(=C3)C)C=CS2 [RU-SKI 43] + CC1(C)CCC(c2ccc(Cl)cc2)=C(CN2CCN(c3ccc(C(=O)NS(=O)(=O)c4ccc(N[C@H](CCN5CCOCC5)CSc5ccccc5)c(S(=O)(=O)C(F)(F)F)c4)cc3)CC2)C1 [Navitoclax] (partner 0.5 µM)
Outline: (§1)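 Lung cancer cell lines, seeded in 1536-well plates, were treated the following day by pin tool with a single drug or with five library-drug doses (not always all listed) in √10 steps on top of a fixed anchor-drug dose. Cells were fixed and nuclei stained in one step after 5 days, and nuclei were counted. Relative viability is the nuclei count for treated wells divided by that for vehicle wells, reported as medians of duplicate plates.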

[2] = compound: Cn1cc(-c2cnc3ccc4ccc(CS(=O)(=O)NCc5ccccn5)cc4c(=O)c3c2)cn1 [MK-8033] + CC1(C)CCC(c2ccc(Cl)cc2)=C(CN2CCN(c3ccc(C(=O)NS(=O)(=O)c4ccc(N[C@H](CCN5CCOCC5)CSc5ccccc5)c(S(=O)(=O)C(F)(F)F)c4)cc3)CC2)C1 [Navitoclax] (partner 0.5 µM)
Outline: as §1

[3] = compound: Cn1cc(-c2cnc3ccc4ccc(CS(=O)(=O)NCc5ccccn5)cc4c(=O)c3c2)cn1 [MK-8033] + Cc1cc(Nc2cc(N3CCN(C)CC3)nc(Sc3ccc(NC(=O)C4CC4)cc3)n2)n[nH]1 [Tozasertib] (partner 0.1 µM)
Outline: as §1

[4] = compound: Cn1cc(-c2cnc3ccc4ccc(CS(=O)(=O)NCc5ccccn5)cc4c(=O)c3c2)cn1 [MK-8033] + Cc1nc(NC(=O)N2CCC[C@H]2C(N)=O)sc1-c1ccnc(C(C)(C)C(F)(F)F)c1 [Alpelisib] (partner 2 µM)
Outline: as §1

NCI-H2405
relative viability ([1]; first compound 0.1 µM): 0.797 | relative viability ([1]; first compound 0.3162 µM): 0.867 | relative viability ([1]; first compound 1 µM): 0.627 | relative viability ([1]; first compound 3.162 µM): 0.74 | relative viability ([1]; first compound 10 µM): 0.711 | relative viability ([2]; first compound 0.02 µM): 0.825 | relative viability ([2]; first compound 0.06325 µM): 0.727 | relative viability ([2]; first compound 0.2 µM): 0.733 | relative viability ([2]; first compound 0.6325 µM): 0.847 | relative viability ([2]; first compound 2 µM): 0.933 | relative viability ([3]; first compound 0.02 µM): 0.735 | relative viability ([3]; first compound 0.06325 µM): 0.726 | relative viability ([3]; first compound 0.2 µM): 0.724 | relative viability ([3]; first compound 0.6325 µM): 0.734 | relative viability ([3]; first compound 2 µM): 0.789 | relative viability ([4]; first compound 0.02 µM): 0.732 | relative viability ([4]; first compound 0.06325 µM): 0.731 | relative viability ([4]; first compound 0.2 µM): 0.699 | relative viability ([4]; first compound 0.6325 µM): 0.765 | relative viability ([4]; first compound 2 µM): 0.736

NCI-H3122
relative viability ([1]; first compound 0.1 µM): 1.03 | relative viability ([1]; first compound 0.3162 µM): 1 | relative viability ([1]; first compound 1 µM): 0.995 | relative viability ([1]; first compound 3.162 µM): 0.97 | relative viability ([1]; first compound 10 µM): 0.98 | relative viability ([2]; first compound 0.02 µM): 1.03 | relative viability ([2]; first compound 0.06325 µM): 1 | relative viability ([2]; first compound 0.2 µM): 1.03 | relative viability ([2]; first compound 0.6325 µM): 1.01 | relative viability ([2]; first compound 2 µM): 1.05 | relative viability ([3]; first compound 0.02 µM): 0.53 | relative viability ([3]; first compound 0.06325 µM): 0.374 | relative viability ([3]; first compound 0.2 µM): 0.383 | relative viability ([3]; first compound 0.6325 µM): 0.369 | relative viability ([3]; first compound 2 µM): 0.323 | relative viability ([4]; first compound 0.02 µM): 0.817 | relative viability ([4]; first compound 0.06325 µM): 0.755 | relative viability ([4]; first compound 0.2 µM): 0.777 | relative viability ([4]; first compound 0.6325 µM): 0.853 | relative viability ([4]; first compound 2 µM): 0.859

PC-3 [JPC-3]
relative viability ([1]; first compound 0.1 µM): 0.74 | relative viability ([1]; first compound 0.3162 µM): 0.748 | relative viability ([1]; first compound 1 µM): 0.783 | relative viability ([1]; first compound 3.162 µM): 0.792 | relative viability ([1]; first compound 10 µM): 0.779 | relative viability ([2]; first compound 0.02 µM): 0.746 | relative viability ([2]; first compound 0.2 µM): 0.775 | relative viability ([2]; first compound 0.6325 µM): 0.726 | relative viability ([2]; first compound 2 µM): 0.749 | relative viability ([3]; first compound 0.02 µM): 0.856 | relative viability ([3]; first compound 0.06325 µM): 0.825 | relative viability ([3]; first compound 0.2 µM): 0.806 | relative viability ([3]; first compound 0.6325 µM): 0.878 | relative viability ([3]; first compound 2 µM): 0.787 | relative viability ([4]; first compound 0.02 µM): 0.959 | relative viability ([4]; first compound 0.2 µM): 0.998 | relative viability ([4]; first compound 0.6325 µM): 1 | relative viability ([4]; first compound 2 µM): 0.956

PC-14
relative viability ([1]; first compound 0.1 µM): 0.962 | relative viability ([1]; first compound 0.3162 µM): 1.3 | relative viability ([1]; first compound 1 µM): 1.08 | relative viability ([1]; first compound 3.162 µM): 0.985 | relative viability ([1]; first compound 10 µM): 0.957 | relative viability ([2]; first compound 0.02 µM): 0.96 | relative viability ([2]; first compound 0.06325 µM): 0.944 | relative viability ([2]; first compound 0.2 µM): 0.987 | relative viability ([2]; first compound 0.6325 µM): 1.06 | relative viability ([2]; first compound 2 µM): 1.02 | relative viability ([3]; first compound 0.02 µM): 0.607 | relative viability ([3]; first compound 0.06325 µM): 0.539 | relative viability ([3]; first compound 0.2 µM): 0.482 | relative viability ([3]; first compound 0.6325 µM): 0.594 | relative viability ([3]; first compound 2 µM): 0.519 | relative viability ([4]; first compound 0.02 µM): 0.888 | relative viability ([4]; first compound 0.06325 µM): 0.878 | relative viability ([4]; first compound 0.2 µM): 0.87 | relative viability ([4]; first compound 0.6325 µM): 0.898 | relative viability ([4]; first compound 2 µM): 0.804

RERF-LC-KJ
relative viability ([1]; first compound 0.1 µM): 1.07 | relative viability ([1]; first compound 0.3162 µM): 1.29 | relative viability ([1]; first compound 1 µM): 1.09 | relative viability ([1]; first compound 3.162 µM): 1.21 | relative viability ([1]; first compound 10 µM): 0.9 | relative viability ([2]; first compound 0.02 µM): 0.972 | relative viability ([2]; first compound 0.06325 µM): 0.867 | relative viability ([2]; first compound 0.2 µM): 0.756 | relative viability ([2]; first compound 0.6325 µM): 0.844 | relative viability ([2]; first compound 2 µM): 0.882 | relative viability ([3]; first compound 0.02 µM): 0.493 | relative viability ([3]; first compound 0.06325 µM): 0.485 | relative viability ([3]; first compound 0.2 µM): 0.457 | relative viability ([3]; first compound 0.6325 µM): 0.393 | relative viability ([3]; first compound 2 µM): 0.408 | relative viability ([4]; first compound 0.02 µM): 0.735 | relative viability ([4]; first compound 0.06325 µM): 0.76 | relative viability ([4]; first compound 0.2 µM): 0.698 | relative viability ([4]; first compound 0.6325 µM): 0.777 | relative viability ([4]; first compound 2 µM): 0.774

SK-LU-1
relative viability ([1]; first compound 0.1 µM): 0.789 | relative viability ([1]; first compound 0.3162 µM): 0.817 | relative viability ([1]; first compound 1 µM): 0.841 | relative viability ([1]; first compound 3.162 µM): 0.831 | relative viability ([1]; first compound 10 µM): 1.03 | relative viability ([2]; first compound 0.02 µM): 0.808 | relative viability ([2]; first compound 0.06325 µM): 0.798 | relative viability ([2]; first compound 0.2 µM): 0.792 | relative viability ([2]; first compound 0.6325 µM): 0.919 | relative viability ([2]; first compound 2 µM): 0.807 | relative viability ([3]; first compound 0.02 µM): 0.328 | relative viability ([3]; first compound 0.06325 µM): 0.35 | relative viability ([3]; first compound 0.2 µM): 0.304 | relative viability ([3]; first compound 0.6325 µM): 0.327 | relative viability ([3]; first compound 2 µM): 0.312 | relative viability ([4]; first compound 0.02 µM): 1 | relative viability ([4]; first compound 0.06325 µM): 1.04 | relative viability ([4]; first compound 0.2 µM): 0.806 | relative viability ([4]; first compound 0.6325 µM): 1.02 | relative viability ([4]; first compound 2 µM): 0.988

SK-MES-1
relative viability ([1]; first compound 0.1 µM): 1.31 | relative viability ([1]; first compound 0.3162 µM): 1.55 | relative viability ([1]; first compound 1 µM): 1.33 | relative viability ([1]; first compound 3.162 µM): 1.25 | relative viability ([1]; first compound 10 µM): 1.12 | relative viability ([2]; first compound 0.02 µM): 1.23 | relative viability ([2]; first compound 0.06325 µM): 1.16 | relative viability ([2]; first compound 0.2 µM): 1.16 | relative viability ([2]; first compound 0.6325 µM): 1.23 | relative viability ([2]; first compound 2 µM): 1.18 | relative viability ([3]; first compound 0.02 µM): 0.902 | relative viability ([3]; first compound 0.06325 µM): 0.825 | relative viability ([3]; first compound 0.2 µM): 0.872 | relative viability ([3]; first compound 0.6325 µM): 0.886 | relative viability ([3]; first compound 2 µM): 0.822 | relative viability ([4]; first compound 0.02 µM): 0.927 | relative viability ([4]; first compound 0.06325 µM): 0.811 | relative viability ([4]; first compound 0.2 µM): 0.89 | relative viability ([4]; first compound 0.6325 µM): 0.936 | relative viability ([4]; first compound 2 µM): 0.96

SW 1573
relative viability ([1]; first compound 0.1 µM): 0.993 | relative viability ([1]; first compound 0.3162 µM): 0.93 | relative viability ([1]; first compound 1 µM): 0.898 | relative viability ([1]; first compound 3.162 µM): 1.03 | relative viability ([1]; first compound 10 µM): 0.721 | relative viability ([2]; first compound 0.02 µM): 0.721 | relative viability ([2]; first compound 0.2 µM): 0.991 | relative viability ([2]; first compound 0.6325 µM): 0.884 | relative viability ([2]; first compound 2 µM): 0.95 | relative viability ([3]; first compound 0.02 µM): 0.175 | relative viability ([3]; first compound 0.06325 µM): 0.214 | relative viability ([3]; first compound 0.2 µM): 0.187 | relative viability ([3]; first compound 0.6325 µM): 0.223 | relative viability ([3]; first compound 2 µM): 0.232 | relative viability ([4]; first compound 0.02 µM): 0.817 | relative viability ([4]; first compound 0.2 µM): 0.698 | relative viability ([4]; first compound 0.6325 µM): 0.687 | relative viability ([4]; first compound 2 µM): 0.719
